According to patent publication US8273783B2, “Microbiocides” (Syngenta Crop Protection LLC, priority 2009, dated 2012):

Experiments:
Puccinia Recondita [1] = test: Curative action against Puccinia recondita (brown rust) on wheat leaf segments; type: in vivo; details: foliar, sprayed one day after inoculation, 0.02% active ingredient, assessed 8 days after inoculation, read-out: inhibition (curative fungicidal activity)
From the text: Wheat leaf segments were placed on agar in multiwell plates (24-well format) and inoculated with a spore suspension of the fungus. One day after inoculation the leaf segments were sprayed with test solutions (0.02% active ingredient).

Mycosphaerella arachidis = test: Action against Mycosphaerella arachidis, liquid culture (early leaf spot); type: cell-based; details: PDB potato dextrose broth, 0.02% active ingredient, 24° C., photometrically after 6-7 days, read-out: inhibition of growth
Experimental: (§1) Conidia of the fungus from cryogenic storage were directly mixed into nutrient broth (PDB potato dextrose broth). After placing a (DMSO) solution of the test compounds (0.02% active ingredient) into a microtiter plate (96-well format) the nutrient broth containing the fungal spores was added. The test plates were incubated at 24° C. and the inhibition of growth was measured photometrically after 6-7 days.

Botryotinia fuckelianal = test: Action against Botryotinia fuckeliana, liquid culture (gray mould); type: cell-based; details: Botrytis cinerea; nutrient broth, 0.02% active ingredient, 24° C., photometrically after 3-4 days; read-out: inhibition of growth
Experimental: as §1, with “broth.” for “broth (PDB potato dextrose broth).”, “solution (0.02% active ingredient)” for “solution”, “compounds” for “compounds (0.02% active ingredient)”, “determined” for “measured”, “3-4” for “6-7”

Pyrenophora teres = test: Action against Pyrenophora teres (net blotch) on barley leaf segments; type: in vivo; details: foliar, 96 h, 0.02% active ingredient, assessed 4 days after inoculation, read-out: inhibition (preventive fungicidal activity)
Experimental: (§2) Barley leaf segments were placed on agar in multiwell plates (24-well format) and sprayed with test solutions (0.02% active ingredient). After drying, the leaf disks were inoculated with a spore suspension of the fungus. After appropriate incubation the activity of a compound was assessed 4 days after inoculation as preventive fungicidal activity.

[2] = system: Erysiphe Graminis f.sp. Tritici; test: Action against Erysiphe graminis f.sp. tritici (wheat powdery mildew), leaf segments, preventive; type: in vivo; details: Blumeria graminis, foliar, 168 h, 0.02% active ingredient, assessed 7 days after inoculation, read-out: inhibition (preventive fungicidal activity)
Experimental: as §2, with “Wheat leaf” for “Barley leaf”, “assessed 7” for “assessed 4”

Puccinia Recondita [3] = test: Preventive action against Puccinia recondita (brown rust) on wheat leaf segments; type: in vivo; details: foliar, 192 h, 0.02% active ingredient, assessed 8 days after inoculation, read-out: inhibition (preventive fungicidal activity)
From the text: Wheat leaf segments were placed on agar in multiwell plates (24-well format) and sprayed with test solutions (0.02% active ingredient). After drying, the leaf disks were inoculated with a spore suspension of the fungus.

Phaeosphaeria nodorum = test: Preventive action against Phaeosphaeria nodorum (glume blotch) on wheat leaf segments; type: in vivo; details: Parastagonospora nodorum, foliar, 96 h, 0.02% active ingredient, assessed 4 days after inoculation, read-out: inhibition (preventive fungicidal activity)
Experimental: as §2, with “Wheat leaf segments” for “Barley leaf segments”, “agar in a multiwell plate” for “agar in multiwell plates”, “a multiwell plate (24-well format)” for “in multiwell plates (24-well format)”

Structure (SMILES) | melting point | inhibition at 0.02 % strength (Puccinia Recondita [1]) | inhibition at 0.02 % strength (Mycosphaerella arachidis) | inhibition at 0.02 % strength (Botryotinia fuckelianal) | inhibition at 0.02 % strength (Pyrenophora teres) | inhibition at 0.02 % strength [2] | inhibition at 0.02 % strength (Puccinia Recondita [3]) | inhibition at 0.02 % strength (Phaeosphaeria nodorum)
COC(c1csc(Cl)c1Cl)C(C)N(OC)C(=O)c1cn(C)nc1C(F)F (stereo not drawn) [1.037 (diastereoisomer pair 2), 3-difluoromethyl-1-methyl-1H-pyrazole-4-carboxylic acid methoxy-[2-methoxy-1-methyl-2-(4,5-dichlorothiophen-3-yl)ethyl]amide] |  | ≥ 80% |  |  |  |  |  | 
COC(c1csc(Cl)c1Cl)C(C)N(OC)C(=O)c1cn(C)nc1C(F)F (stereo not drawn) [1.037 (diastereoisomer pair 1), 3-difluoromethyl-1-methyl-1H-pyrazole-4-carboxylic acid methoxy-[2-methoxy-1-methyl-2-(4,5-dichlorothiophen-3-yl)ethyl]amide] |  |  | ≥ 80% | ≥ 80% | ≥ 80% | ≥ 80% | ≥ 80% | 
CON(C(=O)c1cn(C)nc1C(F)F)C(C)Cc1c(Cl)sc(Cl)c1Cl (centres unmarked) [Compound 1.001, 3-difluoromethyl-1-methyl-1H-pyrazole-4-carboxylic acid methoxy-[1-methyl-2-(2,4,5-trichlorothiophene-3-yl)ethyl]amide] | 70 to 72 °C | ≥ 80% | ≥ 80% | ≥ 80% | ≥ 80% | ≥ 80% | ≥ 80% | ≥ 80%

More lines, main results first:

melting point | Structure (SMILES) | inhibition at 0.02 % strength (Puccinia Recondita [1]) | inhibition at 0.02 % strength (Mycosphaerella arachidis) | inhibition at 0.02 % strength (Botryotinia fuckelianal) | inhibition at 0.02 % strength (Pyrenophora teres) | inhibition at 0.02 % strength [2] | inhibition at 0.02 % strength (Puccinia Recondita [3]) | inhibition at 0.02 % strength (Phaeosphaeria nodorum)
80 to 83 °C | COC(c1csc(Cl)c1Cl)C(C)N(OC)C(=O)c1cn(C)nc1C(F)F (centres unmarked) [Compound 1.037, 3-difluoromethyl-1-methyl-1H-pyrazole-4-carboxylic acid methoxy-[2-methoxy-1-methyl-2-(4,5-dichlorothiophen-3-yl)ethyl]amide] |  |  |  |  |  |  | 
113 to 116 °C | COC(c1c(Cl)sc(Cl)c1Cl)C(C)N(OC)C(=O)c1cn(C)nc1C(F)F (centres unmarked) [Compound 1.016, 3-difluoromethyl-1-methyl-1H-pyrazole-4-carboxylic acid methoxy-[2-methoxy-1-methyl-2-(2,4,5-trichlorothiophene-3-yl)ethyl]amide] | ≥ 80% | ≥ 80% | ≥ 80% | ≥ 80% | ≥ 80% | ≥ 80% | ≥ 80%
